According to ChEMBL document CHEMBL1250504, “Antihypertensive and antiarrhythmic properties of a para-hydroxy[bis(ortho-morpholinylmethyl)]phenyl-1,4-DHP compound: comparison with other compounds of the same kind and relationship with logP values” (Eur J Med Chem, 2010):
Calls of active or inactive are those of the source. The rule behind the calls is not given here.

Assays:
[1] = test system: Rattus norvegicus; test: Antihypertensive activity in Wistar rat invasive arterial pressure model assessed as reduction of systolic pressure at 1 mg/kg, iv; assay type: functional, organism-based; design: dose 1 mg/kg; settings: Artery
[2] = test system: Rattus norvegicus; test: Antiarrhythmic activity in Wistar rat invasive arterial pressure model assessed as reduction of heart rate at 0.1 mg/kg, iv; assay type: functional, organism-based; design: dose 0.1 mg/kg
[3] = test system: Rattus norvegicus; test: Antihypertensive activity in Wistar rat invasive arterial pressure model assessed as reduction of diastolic pressure at 1 mg/kg, iv; assay type: functional, organism-based; design: dose 1 mg/kg; settings: Artery
[4] = Octanol-water partition coefficient, log P of the compound
[5] = test system: Rattus norvegicus; test: Antihypertensive activity in spontaneous hypertensive rat model assessed as reduction of systolic pressure at 0.1 mg/kg, po after 50 mins; assay type: functional, organism-based; design: dose 0.1 mg/kg
[6] = test system: Rattus norvegicus; test: Antihypertensive activity in spontaneous hypertensive rat model assessed as reduction of systolic pressure at 0.1 mg/kg, po after 120 mins; assay type: functional, organism-based; design: dose 0.1 mg/kg
[7] = test system: Rattus norvegicus; test: Antihypertensive activity in Wistar rat invasive arterial pressure model assessed as reduction of diastolic pressure at 0.1 mg/kg, iv; assay type: functional, organism-based; design: dose 0.1 mg/kg; settings: Artery
[8] = test system: Rattus norvegicus; test: Antihypertensive activity in spontaneous hypertensive rat model assessed as reduction of diastolic pressure at 0.1 mg/kg, po after 120 mins; assay type: functional, organism-based; design: dose 0.1 mg/kg
[9] = test system: Rattus norvegicus; test: Antiarrhythmic activity in spontaneous hypertensive rat model assessed as reduction of heart rate at 0.1 mg/kg, po after 40 mins; assay type: functional, organism-based; design: dose 0.1 mg/kg
[10] = test system: Rattus norvegicus; test: Antiarrhythmic activity in spontaneous hypertensive rat model assessed as reduction of heart rate at 0.1 mg/kg, po after 120 mins; assay type: functional, organism-based; design: dose 0.1 mg/kg
[11] = test system: Rattus norvegicus; test: Antihypertensive activity in spontaneous hypertensive rat model assessed as reduction of diastolic pressure at 0.1 mg/kg, po after 50 mins; assay type: functional, organism-based; design: dose 0.1 mg/kg
[12] = test system: Rattus norvegicus; test: Antihypertensive activity in Wistar rat invasive arterial pressure model assessed as reduction of systolic pressure at 0.1 mg/kg, iv; assay type: functional, organism-based; design: dose 0.1 mg/kg; settings: Artery

Row | SMILES | Activity [1] | Activity [2] | Activity [3] | logP [4] | also measured
1 | CC(C)(C)c1cc(CN2CCSCC2)c(O)c(CN2CCSCC2)c1 | Active | Active | Active | 2.03 | 
2 | CC(C)(C)c1ccc(O)c(CN2CCSCC2)c1 | Active | Active | Active | 1.96 | 
3 | CCOC(=O)C1=C(C)NC(C)=C(C(=O)OCC)C1c1cc(CN2CCOCC2)c(O)c(CN2CCOCC2)c1 |  | Active |  | 2.7 | Activity [5]: Active; Activity [6]: Active; Activity [7]: Active; Activity [8]: Active; Activity [9]: Active; Activity [10]: Active; Activity [11]: Active; Activity [12]: Active
4 | Oc1ccc(Cl)cc1CN1CCSCC1 | Active | Active | Active | > 3.05 | 
5 | C[C@H](CS)C(=O)N1CCC[C@H]1C(=O)O [CAPTOPRIL] |  |  |  | 1.02 | 
6 | CCCCc1nc(Cl)c(CO)n1Cc1ccc(-c2ccccc2-c2nn[nH]n2)cc1 [LOSARTAN] |  |  |  | 4.01 | 
